The values below are quoted from earlier work in patent US6464981B2, “Therapeutic agent for a cancer and method of screening the same, and health-care auxiliary food” (Orient Cancer Therapy Co., LTD, priority 2000, dated 2002).

This data set deals with cancer-carrying mice.

Take `CCCCCCCCCCCCCCCCCCCCCCCCCC(=O)N[C@@H](CO[C@H]1O[C@H](CO)[C@H](O)[C@H](O)[C@H]1O)[C@H](O)[C@H](O)CCCCCCCCCCCCCC` [α-galactosylceramide]: the “activation of NKT cells” value was “NKT cells are activated”, the elimination of cancer entry is “elimination of cancer is not observed” and the “metastasis of the cancer” value is on record as “metastasis of the cancer is suppressed”.
